What all share (assay type): cell-based
In one assay the test system is E. coli ATCC25922. Nature of the assay: Salt, serum, acid and alkaline sensitivity. The following applies: for MIC, Control: absence of physiological salts, serum, acid and alkaline; for MIC, FeCl3: in presence of 4μM FeCl3 (final); for MIC, MgCl2: in presence of 1 mM MgCl2; for MIC, KCl: in presence of 4.5 mM KCl (final); for MIC, NaCl: in presence of 150 mM NaCl (final); for MIC, PH=2: peptide incubated at pH=2 for 4 h prior to MIC determination; for MIC, PH=4: peptide incubated at pH=4 for 4 h prior to MIC determination; for MIC, PH=10: peptide incubated at pH=10 for 4 h prior to MIC determination; for MIC, PH=12: peptide incubated at pH=12 for 4 h prior to MIC determination.

The subject of a further assay is Beneficial strains. Nature of the assay: Geometric mean of MICs. The following applies: geometric mean of MICs against beneficial strains; >128 counted as 256 μM.
The subject of another assay is E. coli. The assay is described as follows: Geometric mean of MICs, selectivity and targeting indices. As to conditions: for TI Beneficial strains (targeting index): GM(E. coli)/GM(beneficial strains); for TI Beneficial strains (targeting index) / TI Pathogenic strains (targeting index): smaller = greater specificity; for TI Pathogenic strains (targeting index): GM(E. coli)/GM(other pathogenic strains); for SI E. coli (selectivity index): MHC/GM (E. coli), MHC >128 counted as 256 μM, larger = greater cell selectivity; for TI All (TIall, targeting index): all strains, smaller = greater specificity for E. coli; for GM E. coli: geometric mean of MICs against the 6 E. coli strains, >128 counted as 256 μM.

Square brackets hold non-standard residues; d marks the D form. Peptide text beside a SMILES is read from it.

In the case of `CC[C@H](C)[C@H](NC(=O)CNC(=O)[C@H]1CCCN1C(=O)[C@H](CCCCN)NC(=O)[C@H](Cc1c[nH]c2ccccc12)NC(=O)[C@@H](NC(=O)[C@H](CCCCN)NC(=O)[C@H](CCCCN)NC(=O)[C@@H](N)Cc1c[nH]c2ccccc12)[C@@H](C)CC)C(=O)N[C@@H](CCCCN)C(=O)N[C@@H](CCCCN)C(=O)N[C@@H](Cc1c[nH]c2ccccc12)C(=O)N[C@@H](CCCCN)C(=O)N[C@@H](CCCCN)C(=O)O` [Peptide 8] (H-WKKIWK[dP]GIKKWKK-OH; N-terminus and C-terminus assumed), in the assay on E. coli ATCC25922, the “MIC, Control” value was found to be 16 µM; the “MIC, FeCl3” value came to 16 µM; the “MIC, MgCl2” value was 32 µM; the “MIC, KCl” value is 16 µM. In addition, in the assay on E. coli ATCC25922, the “MIC, NaCl” value was over 64 µM; the “MIC, PH=2” value turned out to be 64 µM; the “MIC, PH=4” value is 32 µM; the “MIC, PH=10” value is 16 µM. In addition, the “MIC, PH=12” value in the assay on E. coli ATCC25922 is 64 µM. Moreover, the “GM Beneficial strains” value in the assay with Beneficial strains was 256.000 µM. In the assay on E. coli, the “TI Beneficial strains (targeting index)” value was found to be 0.079; the “TI Pathogenic strains (targeting index)” value came out at 0.079; the “SI E. coli (selectivity index)” value amounted to 12.699; the “TI All (TIall, targeting index)” value worked out at 0.079. Further, the “GM E. coli” value in the assay on E. coli came to 20.159 µM.
`CC[C@H](C)[C@H](NC(=O)CNC(=O)[C@H]1CCCN1C(=O)[C@H](CCCCN)NC(=O)[C@H](Cc1c[nH]c2ccccc12)NC(=O)[C@@H](NC(=O)[C@H](CCCCN)NC(=O)[C@@H](NC(=O)[C@@H](N)Cc1c[nH]c2ccccc12)[C@@H](C)CC)[C@@H](C)CC)C(=O)N[C@@H](CCCCN)C(=O)N[C@@H](CCCCN)C(=O)N[C@@H](Cc1c[nH]c2ccccc12)C(=O)N[C@@H](CCCCN)C(=O)N[C@@H](CCCCN)C(=O)O` [Peptide 9] (H-WIKIWK[dP]GIKKWKK-OH; N-terminus and C-terminus assumed): in the assay with E. coli ATCC25922, the “MIC, Control” value is 16 µM; the “MIC, FeCl3” value was found to be 16 µM; the “MIC, MgCl2” value turned out to be 64 µM; the “MIC, KCl” value turned out to be 32 µM. In the assay with E. coli ATCC25922, the “MIC, NaCl” value was over 64 µM; the “MIC, PH=2” value was determined as 32 µM; the “MIC, PH=4” value was 32 µM; the “MIC, PH=10” value stood at 16 µM. For the same molecule, in the assay with E. coli ATCC25922, the “MIC, PH=12” value worked out at 16 µM. In addition, in the assay with Beneficial strains, the “GM Beneficial strains” value is 161.270 µM. For the same molecule, in the assay with E. coli, the “TI Beneficial strains (targeting index)” value is reported as 0.111; the “TI Pathogenic strains (targeting index)” value is 0.088; the “SI E. coli (selectivity index)” value is recorded as 14.255; the “TI All (TIall, targeting index)” value came out at 0.100. Besides, the “GM E. coli” value in the assay with E. coli worked out at 17.959 µM.
On to `CC[C@H](C)[C@H](NC(=O)CNC(=O)[C@H]1CCCN1C(=O)[C@H](CCCCN)NC(=O)[C@H](Cc1c[nH]c2ccccc12)NC(=O)[C@@H](NC(=O)[C@H](CCCCN)NC(=O)[C@H](CCCCN)NC(=O)[C@H](Cc1c[nH]c2ccccc12)NC(=O)CNC(=O)CNC(=O)CNC(=O)[C@H](C)NC(=O)[C@H](CO)NC(=O)[C@H](CC(C)C)NC(=O)[C@H](CCCNC(=N)N)NC(=O)[C@@H](NC(=O)[C@H](CCCNC(=N)N)NC(=O)[C@@H]1CCCN1C(=O)[C@H](CCCNC(=N)N)NC(=O)[C@H](CCCCN)NC(=O)[C@@H](N)CCC(N)=O)C(C)C)[C@@H](C)CC)C(=O)N[C@@H](CCCCN)C(=O)N[C@@H](CCCCN)C(=O)N[C@@H](Cc1c[nH]c2ccccc12)C(=O)N[C@H](C(=O)N[C@@H](CCCCN)C(=O)O)[C@@H](C)CC` [Peptide 12] (H-QKRPRVRLSAGGGWKKIWK[dP]GIKKWIK-OH; N-terminus and C-terminus assumed), for which, in the assay on E. coli ATCC25922, the “MIC, Control” value was determined as 8 µM; the “MIC, FeCl3” value is 8 µM; the “MIC, MgCl2” value came to 32 µM; the “MIC, KCl” value was determined as 8 µM. For the same molecule, in the assay with E. coli ATCC25922, the “MIC, NaCl” value was over 64 µM; the “MIC, PH=2” value was 16 µM; the “MIC, PH=4” value turned out to be 8 µM; the “MIC, PH=10” value turned out to be 16 µM. Moreover, the “MIC, PH=12” value in the assay with E. coli ATCC25922 was 16 µM. Also, the “GM Beneficial strains” value with Beneficial strains amounted to 256.000 µM. Moreover, in the assay on E. coli, the “TI Beneficial strains (targeting index)” value is reported as 0.031; the “TI Pathogenic strains (targeting index)” value came out at 0.039; the “SI E. coli (selectivity index)” value was 32.000; the “TI All (TIall, targeting index)” value amounted to 0.035. For the same molecule, the “GM E. coli” value in the assay with E. coli worked out at 8.000 µM.
`CC[C@H](C)[C@H](NC(=O)CNC(=O)[C@H]1CCCN1C(=O)[C@H](CCCCN)NC(=O)[C@H](Cc1c[nH]c2ccccc12)NC(=O)[C@@H](NC(=O)[C@H](CCCCN)NC(=O)[C@H](CCCCN)NC(=O)[C@@H](N)Cc1c[nH]c2ccccc12)[C@@H](C)CC)C(=O)N[C@@H](CCCCN)C(=O)N[C@@H](CCCCN)C(=O)N[C@@H](Cc1c[nH]c2ccccc12)C(=O)N[C@H](C(=O)N[C@@H](CCCCN)C(=O)NCC(=O)NCC(=O)NCC(=O)N[C@@H](CCCCN)C(=O)N[C@@H](CCCCN)C(=O)O)[C@@H](C)CC` [Peptide 6] (H-WKKIWK[dP]GIKKWIKGGGKK-OH; N-terminus and C-terminus assumed): in the assay on E. coli ATCC25922, the “MIC, Control” value was 8 µM; the “MIC, FeCl3” value came out at 8 µM; the “MIC, MgCl2” value worked out at 32 µM; the “MIC, KCl” value came to 8 µM. In the assay with E. coli ATCC25922, the “MIC, NaCl” value was over 64 µM; the “MIC, PH=2” value was 32 µM; the “MIC, PH=4” value is 16 µM; the “MIC, PH=10” value was 16 µM. Further, the “MIC, PH=12” value in the assay on E. coli ATCC25922 is 16 µM. For the same molecule, the “GM Beneficial strains” value in the assay on Beneficial strains stood at 256.000 µM. Also, in the assay with E. coli, the “TI Beneficial strains (targeting index)” value was found to be 0.050; the “TI Pathogenic strains (targeting index)” value stood at 0.056; the “SI E. coli (selectivity index)” value is 20.159; the “TI All (TIall, targeting index)” value is 0.053. Moreover, the “GM E. coli” value with E. coli came out at 12.699 µM.
On to `CC[C@H](C)[C@H](NC(=O)CNC(=O)[C@H]1CCCN1C(=O)[C@H](CCCCN)NC(=O)[C@H](Cc1c[nH]c2ccccc12)NC(=O)[C@@H](NC(=O)[C@@H](N)CCCCN)[C@@H](C)CC)C(=O)N[C@@H](CCCCN)C(=O)N[C@@H](CCCCN)C(=O)N[C@@H](Cc1c[nH]c2ccccc12)C(=O)O` [Peptide 1] (H-KIWK[dP]GIKKW-OH; N-terminus and C-terminus assumed), for which, in the assay with E. coli ATCC25922, the “MIC, Control” value was over 64 µM; the “MIC, FeCl3” value was over 64 µM; the “MIC, MgCl2” value is over 64 µM; the “MIC, KCl” value is over 64 µM. In the assay on E. coli ATCC25922, the “MIC, NaCl” value was over 64 µM; the “MIC, PH=2” value is over 64 µM; the “MIC, PH=4” value is over 64 µM; the “MIC, PH=10” value is over 64 µM. In addition, the “MIC, PH=12” value in the assay on E. coli ATCC25922 was over 64 µM. The “GM Beneficial strains” value with Beneficial strains came out at 256.000 µM. Further, in the assay with E. coli, the “TI Beneficial strains (targeting index)” value is reported as 1.000; the “TI Pathogenic strains (targeting index)” value stood at 1.000; the “SI E. coli (selectivity index)” value is listed as 1.000; the “TI All (TIall, targeting index)” value is 1.000. Also, the “GM E. coli” value in the assay on E. coli came out at 256.000 µM.
Turning to `CC[C@H](C)[C@H](NC(=O)CN)C(=O)NCC(=O)N[C@@H](C)C(=O)N[C@H](C(=O)N[C@@H](CC(C)C)C(=O)N[C@@H](CCCCN)C(=O)N[C@H](C(=O)N[C@@H](CC(C)C)C(=O)N[C@H](C(=O)N[C@H](C(=O)NCC(=O)N[C@@H](CC(C)C)C(=O)N1CCC[C@H]1C(=O)N[C@@H](C)C(=O)N[C@@H](CC(C)C)C(=O)N[C@H](C(=O)N[C@@H](CO)C(=O)N[C@@H](Cc1c[nH]c2ccccc12)C(=O)N[C@H](C(=O)N[C@@H](CCCCN)C(=O)N[C@@H](CCCNC(=N)N)C(=O)N[C@@H](CCCCN)C(=O)N[C@@H](CCCNC(=N)N)C(=O)N[C@@H](CCC(N)=O)C(=O)N[C@@H](CCC(N)=O)C(N)=O)[C@@H](C)CC)[C@@H](C)CC)[C@@H](C)O)[C@@H](C)O)C(C)C)C(C)C` [MLT, Melittin, reference compound], the “GM Beneficial strains” value in the assay on Beneficial strains is 2.245 µM. Further, in the assay with E. coli, the “TI Beneficial strains (targeting index)” value was found to be 1.122; the “TI Pathogenic strains (targeting index)” value was 0.630; the “SI E. coli (selectivity index)” value turned out to be 0.794; the “TI All (TIall, targeting index)” value is recorded as 0.876. The “GM E. coli” value with E. coli stood at 2.520 µM.
In the case of `CC[C@H](C)[C@H](NC(=O)CNC(=O)[C@H]1CCCN1C(=O)[C@H](CCCCN)NC(=O)[C@H](Cc1c[nH]c2ccccc12)NC(=O)[C@@H](NC(=O)[C@H](CCCCN)NC(=O)[C@@H](NC(=O)[C@@H](N)Cc1c[nH]c2ccccc12)[C@@H](C)CC)[C@@H](C)CC)C(=O)N[C@@H](CCCCN)C(=O)N[C@@H](CCCCN)C(=O)N[C@@H](Cc1c[nH]c2ccccc12)C(=O)N[C@H](C(=O)N[C@@H](CCCCN)C(=O)O)[C@@H](C)CC` [Peptide 7] (H-WIKIWK[dP]GIKKWIK-OH; N-terminus and C-terminus assumed), in the assay on E. coli ATCC25922, the “MIC, Control” value came to 32 µM; the “MIC, FeCl3” value amounted to 32 µM; the “MIC, MgCl2” value is over 64 µM; the “MIC, KCl” value is 32 µM. In the assay with E. coli ATCC25922, the “MIC, NaCl” value is over 64 µM; the “MIC, PH=2” value was 32 µM; the “MIC, PH=4” value worked out at 32 µM; the “MIC, PH=10” value was found to be 32 µM. Also, the “MIC, PH=12” value in the assay on E. coli ATCC25922 stood at 32 µM. In addition, in the assay with Beneficial strains, the “GM Beneficial strains” value amounted to 256.000 µM. Further, in the assay on E. coli, the “TI Beneficial strains (targeting index)” value was found to be 0.099; the “TI Pathogenic strains (targeting index)” value is 0.111; the “SI E. coli (selectivity index)” value is on record as 10.080; the “TI All (TIall, targeting index)” value is recorded as 0.105. In addition, the “GM E. coli” value in the assay on E. coli was determined as 25.398 µM.

The record behind these values is publication doi:10.1101/679977v1 (bioRxiv, 2019).
